This is an account of results in patent US20250163054A1, “SUBSTITUTED BICYCLIC HETEROARYL COMPOUNDS USEFUL AS INHIBITORS OF TLR9” (Bristol-Myers Squibb Company, priority 2022, published 2025).

Holding throughout (format): cell-based
The target of assay [1] is T1, human TLR8 (Homo sapiens, UniProt Q9NR97).
T1 construct: host or cells: HEK-Blue cells (HEK293-derived reporter line)
T1 sequence (Q9NR97 27-1041): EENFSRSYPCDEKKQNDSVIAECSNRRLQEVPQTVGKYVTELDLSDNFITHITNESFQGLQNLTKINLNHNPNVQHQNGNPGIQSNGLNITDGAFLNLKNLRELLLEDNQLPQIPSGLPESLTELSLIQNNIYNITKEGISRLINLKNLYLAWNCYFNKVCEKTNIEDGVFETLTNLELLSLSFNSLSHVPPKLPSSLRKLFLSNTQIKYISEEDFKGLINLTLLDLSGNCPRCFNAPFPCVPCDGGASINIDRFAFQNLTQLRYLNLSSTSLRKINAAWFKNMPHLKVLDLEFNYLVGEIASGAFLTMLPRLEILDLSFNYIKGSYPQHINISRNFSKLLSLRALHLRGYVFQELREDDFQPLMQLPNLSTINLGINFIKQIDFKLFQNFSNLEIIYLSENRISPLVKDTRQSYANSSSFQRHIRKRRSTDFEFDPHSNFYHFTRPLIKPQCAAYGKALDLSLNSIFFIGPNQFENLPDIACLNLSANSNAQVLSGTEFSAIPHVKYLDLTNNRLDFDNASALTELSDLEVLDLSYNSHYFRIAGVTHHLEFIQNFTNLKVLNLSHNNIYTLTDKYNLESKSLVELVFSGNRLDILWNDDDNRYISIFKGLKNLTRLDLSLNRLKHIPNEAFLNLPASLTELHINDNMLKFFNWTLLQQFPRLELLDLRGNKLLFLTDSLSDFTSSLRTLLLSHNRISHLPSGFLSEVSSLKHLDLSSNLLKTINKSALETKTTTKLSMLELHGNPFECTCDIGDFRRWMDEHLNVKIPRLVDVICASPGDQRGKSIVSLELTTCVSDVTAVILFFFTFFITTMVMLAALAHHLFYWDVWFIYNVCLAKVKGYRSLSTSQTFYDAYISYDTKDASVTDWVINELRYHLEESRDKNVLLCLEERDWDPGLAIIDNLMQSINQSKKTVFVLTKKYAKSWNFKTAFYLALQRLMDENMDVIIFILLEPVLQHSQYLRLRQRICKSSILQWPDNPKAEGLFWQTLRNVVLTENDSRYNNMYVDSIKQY
In words: TLR7/8/9 Inhibition Reporter Assays (TLR8). Conditions: HEK-Blue cells overexpressing human TLR8, SEAP reporter, stimulated with TLR8 ligand R848. The procedure, abridged:
(§1)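 HEK-Blue cells overexpressing human TLR7, TLR8 or TLR9 with NF-κB/AP-1-driven SEAP reporter, pre-treated 60 min with compound ([…]). Stimulated with […] (TLR7), […] (TLR8) or ODN2006 200 nM (TLR9), then 22 h at 37° C; SEAP measured, % inhibition relative to agonist-plus-DMSO and known-inhibitor wells.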

The target in assay [2] is T2, human TLR9 (Homo sapiens, UniProt Q9NR96).
T2 construct: host or cells: HEK-Blue cells (HEK293-derived reporter line)
T2 sequence (Q9NR96 26-1032): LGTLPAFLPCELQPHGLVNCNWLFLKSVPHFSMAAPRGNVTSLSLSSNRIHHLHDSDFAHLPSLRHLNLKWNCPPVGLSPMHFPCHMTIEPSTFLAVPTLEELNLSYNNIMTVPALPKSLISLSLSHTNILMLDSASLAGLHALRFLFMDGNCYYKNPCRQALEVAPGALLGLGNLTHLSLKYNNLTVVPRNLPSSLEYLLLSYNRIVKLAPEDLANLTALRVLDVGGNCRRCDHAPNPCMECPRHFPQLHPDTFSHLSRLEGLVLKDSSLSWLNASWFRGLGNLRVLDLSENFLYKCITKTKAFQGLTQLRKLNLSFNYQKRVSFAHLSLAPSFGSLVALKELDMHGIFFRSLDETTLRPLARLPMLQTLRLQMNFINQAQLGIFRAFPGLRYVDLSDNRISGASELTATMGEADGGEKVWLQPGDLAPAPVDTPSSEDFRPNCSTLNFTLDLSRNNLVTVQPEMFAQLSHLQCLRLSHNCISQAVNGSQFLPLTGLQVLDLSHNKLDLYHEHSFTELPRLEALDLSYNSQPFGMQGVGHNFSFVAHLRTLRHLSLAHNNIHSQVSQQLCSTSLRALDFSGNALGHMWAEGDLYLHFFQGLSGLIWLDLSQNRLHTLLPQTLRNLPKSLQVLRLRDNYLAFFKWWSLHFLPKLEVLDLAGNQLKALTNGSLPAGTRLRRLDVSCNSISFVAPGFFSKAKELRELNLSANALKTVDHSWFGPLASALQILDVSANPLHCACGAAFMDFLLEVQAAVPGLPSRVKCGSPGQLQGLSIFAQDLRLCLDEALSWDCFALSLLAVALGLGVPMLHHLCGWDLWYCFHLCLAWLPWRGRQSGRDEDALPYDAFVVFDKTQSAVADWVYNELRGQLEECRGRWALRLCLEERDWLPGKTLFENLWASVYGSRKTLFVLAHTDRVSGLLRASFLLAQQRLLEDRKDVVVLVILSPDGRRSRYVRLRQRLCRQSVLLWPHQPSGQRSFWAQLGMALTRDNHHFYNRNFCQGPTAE
In words: TLR7/8/9 Inhibition Reporter Assays (TLR9). Conditions: HEK-Blue cells overexpressing human TLR9, SEAP reporter, stimulated with TLR9 ligand ODN2006. The procedure, abridged: as §1

The target of assay [3] is T3, human TLR7 (Homo sapiens, UniProt Q9NYK1).
T3 construct: host or cells: HEK-Blue cells (HEK293-derived reporter line)
T3 sequence (Q9NYK1 27-1049): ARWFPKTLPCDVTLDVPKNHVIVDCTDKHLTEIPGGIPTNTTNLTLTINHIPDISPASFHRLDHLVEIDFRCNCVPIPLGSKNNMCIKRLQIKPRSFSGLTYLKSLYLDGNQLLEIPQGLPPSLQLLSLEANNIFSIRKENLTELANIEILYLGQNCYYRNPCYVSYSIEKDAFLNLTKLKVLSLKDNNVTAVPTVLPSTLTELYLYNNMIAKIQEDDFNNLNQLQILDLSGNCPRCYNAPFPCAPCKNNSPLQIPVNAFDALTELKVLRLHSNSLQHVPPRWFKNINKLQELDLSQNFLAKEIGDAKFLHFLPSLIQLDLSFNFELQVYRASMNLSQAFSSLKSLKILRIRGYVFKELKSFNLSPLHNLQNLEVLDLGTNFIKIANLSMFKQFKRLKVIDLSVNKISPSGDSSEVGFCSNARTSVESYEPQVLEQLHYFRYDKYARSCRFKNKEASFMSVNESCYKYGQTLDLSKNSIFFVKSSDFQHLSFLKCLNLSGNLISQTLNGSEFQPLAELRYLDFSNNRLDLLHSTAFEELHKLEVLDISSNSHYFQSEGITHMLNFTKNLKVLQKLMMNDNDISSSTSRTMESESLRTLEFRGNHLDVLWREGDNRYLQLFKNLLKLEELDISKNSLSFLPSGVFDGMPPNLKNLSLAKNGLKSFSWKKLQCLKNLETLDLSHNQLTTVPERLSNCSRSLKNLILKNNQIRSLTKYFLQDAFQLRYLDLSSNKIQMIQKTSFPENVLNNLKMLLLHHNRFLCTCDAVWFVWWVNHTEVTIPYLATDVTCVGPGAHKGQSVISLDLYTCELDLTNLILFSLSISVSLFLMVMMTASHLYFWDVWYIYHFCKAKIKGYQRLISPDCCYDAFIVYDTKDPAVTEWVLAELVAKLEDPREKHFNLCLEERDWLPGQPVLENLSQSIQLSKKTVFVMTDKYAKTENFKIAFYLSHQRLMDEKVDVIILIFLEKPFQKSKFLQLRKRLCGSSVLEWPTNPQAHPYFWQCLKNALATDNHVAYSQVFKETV
In words: TLR7/8/9 Inhibition Reporter Assays (TLR7). Particulars: HEK-Blue cells overexpressing human TLR7, SEAP reporter, stimulated with TLR7 ligand gardiquimod. An outline of the steps: as §1
(In a reporter assay the amount or activity of a reporter protein is the signal.)

As to `CC(C)N1C[C@H]2CN(c3ccc(-c4cc5c(cn4)nc(-c4ccc(S(C)(=O)=O)cc4)n5C4CC4)cc3)C[C@H]2C1` [Example 87, 1-cyclopropyl-6-(4-((3aR,6aS)-5-isopropylhexahydropyrrolo[3,4-c]pyrrol-2(1H)-yl)phenyl)-2-(4-(methylsulfonyl)phenyl)-1H-imidazo[4,5-c]pyridine], the IC50 (commonly the midpoint of a concentration-inhibition curve) in assay [1] was determined as 2000 nM; in assay [2], 290 nM; in assay [3], 1500 nM.
`COc1ccc(-c2nc3c(C)nc(-c4ccc(N5CCN(CC6CC6)CC5)cc4)cc3n2C)cc1OC` [Example 18, 6-(4-(4-(cyclopropylmethyl)piperazin-1-yl)phenyl)-2-(3,4-dimethoxyphenyl)-1,4-dimethyl-1H-imidazo[4,5-c]pyridine]: the IC50 is 18000 nM in assay [1], 140 nM in assay [2] and 1500 nM in assay [3].
For `Cc1nc(-c2ccc(N3CCC(N4CCCC4)CC3)cc2)cc2c1nc(-c1ccc(S(C)(=O)=O)cc1)n2C` [Example 41, 1,4-dimethyl-2-(4-(methylsulfonyl)phenyl)-6-(4-(4-(pyrrolidin-1-yl)piperidin-1-yl)phenyl)-1H-imidazo[4,5-c]pyridine] the same measures were over 50000 nM, 110 nM and 5800 nM.
Regarding `Cc1nc(-c2ccc(N3C[C@H]4CN(CC(C)C)C[C@H]4C3)cc2)cc2c1nc(-c1ccc(S(C)(=O)=O)cc1)n2C` [Example 68, 6-(4-((3aR,6aS)-5-isobutylhexahydropyrrolo[3,4-c]pyrrol-2(1H)-yl)phenyl)-1,4-dimethyl-2-(4-(methylsulfonyl)phenyl)-1H-imidazo[4,5-c]pyridine], the IC50 in assay [1] was found to be 3100 nM; in assay [2], 32 nM; in assay [3], 2000 nM.
For `Cc1nc(-c2ccc(C3CCN(C)CC3)cc2)cc2c1nc(-c1ccc(S(C)(=O)=O)cc1)n2C` [Example 26, 1,4-dimethyl-6-(4-(1-methylpiperidin-4-yl)phenyl)-2-(4-(methylsulfonyl)phenyl)-1H-imidazo[4,5-c]pyridine] the same measures were 41000 nM, 230 nM and 6100 nM.
For the molecule `CC(C)N1CC2(CCN(c3ccc(-c4cc5c(cn4)nc(-c4ccc(S(C)(=O)=O)cc4)n5C4CC4)cc3)CC2)C1` [Example 62, 1-cyclopropyl-6-(4-(2-isopropyl-2,7-diazaspiro[3.5]nonan-7-yl)phenyl)-2-(4-(methylsulfonyl)phenyl)-1H-imidazo[4,5-c]pyridine], the IC50 was 1200 nM in assay [1], 250 nM in assay [2] and 5100 nM in assay [3].
Taken in the same sequence, the figures for `COCCN1CC2(C1)CN(c1ccc(-c3cc4c(nc(-c5ccc(OC)c(OC)c5)n4C)c(C)n3)cc1)C2` [Example 101, 2-(3,4-dimethoxyphenyl)-6-(4-(6-(2-methoxyethyl)-2,6-diazaspiro[3.3]heptan-2-yl)phenyl)-1,4-dimethyl-1H-imidazo[4,5-c]pyridine] were over 50000 nM, 85 nM and 1800 nM.
Regarding `Cc1nc(-c2ccc(N3CCC(N4CCCC4)CC3)c(F)c2)cc2c1nc(-c1ccc(S(C)(=O)=O)cc1)n2C` [Example 42, 6-(3-fluoro-4-(4-(pyrrolidin-1-yl)piperidin-1-yl)phenyl)-1,4-dimethyl-2-(4-(methylsulfonyl)phenyl)-1H-imidazo[4,5-c]pyridine], the concentration for half-maximal inhibition (IC50) in assay [1] is over 50000 nM; in assay [2], 440 nM; in assay [3] it was 2400 nM.
Taken in the same sequence, the figures for `COc1cc(-c2nc3c(C)nc(-c4ccc(N5CCN(CC(C)C)CC5)cc4)cc3n2C)cn2ncnc12` [Example 10, 6-(6-(4-(4-isobutylpiperazin-1-yl)phenyl)-1,4-dimethyl-1H-imidazo[4,5-c]pyridin-2-yl)-8-methoxy-[1,2,4]triazolo[1,5-a]pyridine] were over 50000 nM, 1700 nM and 9600 nM.
